Columns and labels:
[1] = Binding affinity to influenza A/Beijing/262/95 H1N1 neuraminidase expressed in baculovirus expression system using sialyl-lactose as substrate
[2] = Inhibition of Influenza A virus (A/Guangdong/05/2009(H1N1)) neuraminidase using 4-MUNANA as substrate preincubated for 1 hr followed by substrate addition and measured after 1 hr by fluorescence assay
[3] = Inhibition of Influenza A virus (A/GuangdongSB/01/2009(H1N1)) neuraminidase using 4-MUNANA as substrate preincubated for 1 hr followed by substrate addition and measured after 1 hr by fluorescence assay
[4] = Inhibition of Influenza A virus (A/Guangdong/03/2009(H1N1)) neuraminidase using 4-MUNANA as substrate preincubated for 1 hr followed by substrate addition and measured after 1 hr by fluorescence assay

SMILES	Ki [1]	IC50 [2]	IC50 [3]	IC50 [4]
O=S(=O)(O)c1ccccc1Nc1nc(Cl)nc(Nc2ccccc2S(=O)(=O)O)n1	280 nM			
C/C=C/Oc1cc(C=O)ccc1O		25 µM	27 µM	28 µM
Nc1c(S(=O)(=O)O)cc(Nc2ccc(Nc3nc(Cl)nc(Nc4ccccc4S(=O)(=O)O)n3)c(S(=O)(=O)O)c2)c2c1C(=O)c1ccccc1C2=O	2900 nM			
O=S(=O)(O)c1cccc(Nc2nc(Cl)nc(Nc3cccc(S(=O)(=O)O)c3)n2)c1	130 nM			
